Here are results for 25 molecules from patent US8889711B2, “Pyrazolopyridine derivatives as anticancer agent” (Pierre Fabre Medicament, priority 2009, dated 2014).

A word on the IC50: it is the concentration that gives 50% inhibition.

One experiment concerns karpas 299 cells. The experiment can be described thus: Measurement of inhibition of cell proliferation (Karpas), ATPlite. In kind it is cell-based. Conditions: Homo sapiens, KARPAS-299, 72 h. How it is done: Measurement of Inhibition of Cell Proliferation (Karpas):
The antiproliferative activities of the compounds were measured using the ATPlite technique (Perkin Elmer).
The non-adhering cells (karpas 299) are seeded in 96-well plates (300 000 cells/ml) on Day 1 at a concentration compatible with logarithmic growth for 72 hours required for evaluation of the compounds. All the cells are treated on Day 1, then placed in an incubator at 37° C. under 5% CO2 atmosphere. Cell viability is evaluated on Day 4 by assay of released ATP, characteristic of viable cells. The IC50 values are determined by non-linear regression on the basis of a sigmoid model of dose/response relationship, Hill's slope coefficient being left variable, performed using GraphPad software sequence with the supplied algorithm.
(In general: Cellular ATP, detected with luciferase, serves as a proxy for viable cell number.)
Take `N#Cc1c(-c2ccc(O)cc2)nc2[nH]ncc2c1-c1ccc(O)cc1` [Compound 17]: the IC50 lay within 1 to 10 µM.
Still for that read-out and setting: then `Cc1n[nH]c2nc(-c3ccc(O)cc3)c(C#N)c(-c3ccc(O)cc3)c12` [Compound 19], with 1 to 10 µM.
On the same count and under the same terms, then `N#Cc1c(-c2ccc(O)cc2)nc2[nH]ncc2c1-c1ccco1` [Compound 44], with 0.1 to 1 µM; and `N#Cc1c(-c2ccc(O)cc2)nc2[nH]ncc2c1-c1ccoc1` [Compound 45], with 1 to 10 µM.
Same read-out and setting: then `CN1CCN(Cc2ccc(-c3c(C#N)c(-c4ccc(O)cc4)nc4[nH]ncc34)cc2)CC1` [Compound 47], with 1 to 10 µM; and `N#Cc1c(-c2ccc(O)cc2)nc2[nH]ncc2c1-c1nccs1` [Compound 48], with 1 to 10 µM; and `N#Cc1c(-c2ccc(O)cc2)nc2[nH]ncc2c1-c1ccsc1` [Compound 50], with 1 to 10 µM.
As to `N#Cc1c(-c2ccc(O)cc2)nc2[nH]ncc2c1-c1cccs1` [Compound 52], the IC50 was 1 to 10 µM.
The same measure, in the same setting: then `N#Cc1c(-c2ccc(O)cc2)nc2[nH]ncc2c1-c1ccc(CN)cc1` [Compound 53], with 1 to 10 µM; and `N#Cc1c(-c2ccc(O)cc2)nc2[nH]ncc2c1-c1ccc(Cn2ccnc2)cc1` [Compound 54], with above 10 µM.
The same measure, in the same setting: then `N#Cc1c(-c2ccc(O)cc2)nc2[nH]ncc2c1-c1ccc(N2CCNCC2)cc1` [Compound 59], with 1 to 10 µM; and `N#Cc1c(-c2ccc(O)cc2)nc2[nH]ncc2c1-c1cccc(N2CCNCC2)c1` [Compound 68], with 1 to 10 µM.
`N#Cc1c(-c2ccc(O)cc2F)nc2[nH]ncc2c1-c1ccco1` [Compound 75]: the half-inhibitory concentration (IC50) is 0.1 to 1 µM.
On the same count and under the same terms, then `N#Cc1c(-c2ccc(O)c(F)c2)cc2[nH]ncc2c1-c1ccco1` [Compound 76], with 1 to 10 µM.
Same read-out and setting: then `N#Cc1c(-c2ccc(O)cc2F)nc2[nH]ncc2c1-c1ccc(CO)o1` [Compound 77], with 1 to 10 µM; and `Cc1n[nH]c2nc(-c3ccc(O)cc3)c(C#N)c(-c3ccco3)c12` [Compound 78], with 1 to 10 µM.
The same measure, in the same setting: then `Cc1n[nH]c2cc(-c3ccc(O)cc3F)c(C#N)c(-c3ccc(CN)o3)c12` [Compound 80], with 1 to 10 µM.

In a further experiment the target is ALK kinase (Homo sapiens, UniProt Q9UM73). Kind of experiment: Test to measure ALK kinase inhibition (GST-PLCγ1 substrate, anti-phosphotyrosine ELISA, luminescence). In kind it is biochemical. Conditions: ALK kinase 180 ng/ml, 250 μM ATP, 30 minutes at 30° C. The method, then: Test to Measure ALK Kinase Inhibition
Chain of ALK kinase (Q9UM73 19-1620): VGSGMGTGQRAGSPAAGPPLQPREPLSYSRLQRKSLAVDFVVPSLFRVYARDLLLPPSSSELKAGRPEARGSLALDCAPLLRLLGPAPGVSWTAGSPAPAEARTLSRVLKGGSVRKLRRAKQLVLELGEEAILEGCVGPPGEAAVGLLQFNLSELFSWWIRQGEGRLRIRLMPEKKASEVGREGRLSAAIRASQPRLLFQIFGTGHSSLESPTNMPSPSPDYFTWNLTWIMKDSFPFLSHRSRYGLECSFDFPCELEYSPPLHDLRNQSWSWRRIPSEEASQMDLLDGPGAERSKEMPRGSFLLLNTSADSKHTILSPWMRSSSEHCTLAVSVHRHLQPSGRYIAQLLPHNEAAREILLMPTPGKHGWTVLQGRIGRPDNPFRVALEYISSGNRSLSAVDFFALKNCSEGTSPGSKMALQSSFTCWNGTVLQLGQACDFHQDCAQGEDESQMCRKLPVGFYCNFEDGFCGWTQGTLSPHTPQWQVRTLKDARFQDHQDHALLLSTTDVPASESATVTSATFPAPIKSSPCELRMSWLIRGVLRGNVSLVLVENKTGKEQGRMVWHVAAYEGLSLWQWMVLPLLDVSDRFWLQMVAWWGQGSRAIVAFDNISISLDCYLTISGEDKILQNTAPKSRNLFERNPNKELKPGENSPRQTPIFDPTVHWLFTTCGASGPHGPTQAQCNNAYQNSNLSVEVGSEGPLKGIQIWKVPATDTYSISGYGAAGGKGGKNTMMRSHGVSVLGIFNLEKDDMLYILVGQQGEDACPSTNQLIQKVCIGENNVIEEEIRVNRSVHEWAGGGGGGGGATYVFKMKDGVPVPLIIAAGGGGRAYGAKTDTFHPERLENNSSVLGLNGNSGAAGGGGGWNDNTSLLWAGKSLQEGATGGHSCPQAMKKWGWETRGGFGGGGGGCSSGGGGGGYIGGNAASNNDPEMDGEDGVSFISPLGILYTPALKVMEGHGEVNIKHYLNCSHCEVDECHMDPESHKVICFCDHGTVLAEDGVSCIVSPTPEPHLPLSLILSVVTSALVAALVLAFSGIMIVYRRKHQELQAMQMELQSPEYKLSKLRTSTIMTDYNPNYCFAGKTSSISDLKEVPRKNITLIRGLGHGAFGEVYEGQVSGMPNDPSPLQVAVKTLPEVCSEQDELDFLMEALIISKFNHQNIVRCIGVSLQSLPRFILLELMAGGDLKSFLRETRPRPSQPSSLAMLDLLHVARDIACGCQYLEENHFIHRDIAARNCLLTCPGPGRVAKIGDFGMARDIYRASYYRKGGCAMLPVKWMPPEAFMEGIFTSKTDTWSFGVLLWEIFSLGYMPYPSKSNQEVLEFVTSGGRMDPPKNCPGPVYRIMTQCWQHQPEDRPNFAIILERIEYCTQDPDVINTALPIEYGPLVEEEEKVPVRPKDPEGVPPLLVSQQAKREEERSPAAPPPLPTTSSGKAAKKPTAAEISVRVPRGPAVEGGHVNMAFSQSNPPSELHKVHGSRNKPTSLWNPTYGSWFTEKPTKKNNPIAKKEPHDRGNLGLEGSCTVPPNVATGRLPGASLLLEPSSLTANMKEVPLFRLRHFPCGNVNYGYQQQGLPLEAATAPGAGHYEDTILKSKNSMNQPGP
A ViewPlate (Packard) is incubated with the GST-PLCγ1 substrate (purified recombinant form) at 0.1 mg/ml in phosphate buffer (PBS pH 7.4)(100 μl/well) for one hour under shaking. The plate is then saturated with a blocking solution containing 5% bovine serum albumin (BSA) (SIGMA) in PBS buffer pH 7.4.
After adding the inhibitor at the desired final concentration (usual range of 30 μM to 10 nM), the reaction is conducted by adding the ALK kinase at 180 ng/ml in 13 mM Tris reaction buffer pH 7.5 (SIGMA); 6.5 mM MgCl2 (MERCK); 0.65 mM DiThioThreitol (DTT) (ACROS); 39 mM sodium β-glycerophosphate (TCI); 0.65 mM sodium orthovanadate (SIGMA) and 250 μM ATP (SIGMA). Incubation is carried out for 30 minutes at 30° C. under shaking.
After three washings under shaking in 0.1% PBS/Tween-20 buffer (SIGMA), an anti-phosphotyrosine antibody coupled with HRP (UBI) diluted to 1/1000th in PBS/BSA buffer 5 mg/ml, is incubated for one hour under shaking. After three further washings in 0.1% PBS/Tween-20, the wells are incubated two minutes with 100 μl of SuperSignal ELISA mixture (PIERCE).
The signal is read in luminescent mode using a luminometer (MOLECULAR DEVICES SpectraMax M5e).
On the technique in general: In an ELISA, binding on a coated surface is turned into a signal by an enzyme label.
In turn, `N#Cc1c(-c2ccc(O)cc2)nc2[nH]ncc2c1-c1ccc(O)cc1` [Compound 17] had a half-inhibitory concentration (IC50) of 0.1 to 1 µM.
Same read-out and setting: then `Cc1n[nH]c2nc(-c3ccc(O)cc3)c(C#N)c(-c3ccc(O)cc3)c12` [Compound 19], with 0.1 to 1 µM; and `N#Cc1c(-c2ccc(O)cc2)nc2[nH]ncc2c1-c1ccco1` [Compound 44], with below 0.1 µM; and `N#Cc1c(-c2ccc(O)cc2)nc2[nH]ncc2c1-c1ccoc1` [Compound 45], with 0.1 to 1 µM.
Still for that read-out and setting: then `CN1CCN(Cc2ccc(-c3c(C#N)c(-c4ccc(O)cc4)nc4[nH]ncc34)cc2)CC1` [Compound 47], with 1 to 10 µM.
Still for that read-out and setting: then `N#Cc1c(-c2ccc(O)cc2)nc2[nH]ncc2c1-c1nccs1` [Compound 48], with 0.1 to 1 µM; and `N#Cc1c(-c2ccc(O)cc2)nc2[nH]ncc2c1-c1ccsc1` [Compound 50], with 0.1 to 1 µM; and `N#Cc1c(-c2ccc(O)cc2)nc2[nH]ncc2c1-c1cccs1` [Compound 52], with 0.1 to 1 µM.
Take `N#Cc1c(-c2ccc(O)cc2)nc2[nH]ncc2c1-c1ccc(CN)cc1` [Compound 53]: the IC50 is 0.1 to 1 µM.
Still for that read-out and setting: then `N#Cc1c(-c2ccc(O)cc2)nc2[nH]ncc2c1-c1ccc(Cn2ccnc2)cc1` [Compound 54], with 1 to 10 µM; and `N#Cc1c(-c2ccc(O)cc2)nc2[nH]ncc2c1-c1ccc(N2CCNCC2)cc1` [Compound 59], with 0.1 to 1 µM.
The same measure, in the same setting: then `N#Cc1c(-c2ccc(O)cc2)nc2[nH]ncc2c1-c1cccc(N2CCNCC2)c1` [Compound 68], with 0.1 to 1 µM; and `N#Cc1c(-c2ccc(O)cc2)nc2[nH]ncc2c1-c1ccc(OCCN2CCOCC2)cc1` [Compound 73], with 0.1 to 1 µM.
The same measure, in the same setting: then `COc1cc(-c2cc3[nH]ncc3c(-c3ccco3)c2C#N)ccc1O` [Compound 74], with 0.1 to 1 µM; and `N#Cc1c(-c2ccc(O)cc2F)nc2[nH]ncc2c1-c1ccco1` [Compound 75], with below 0.1 µM.
In turn, `N#Cc1c(-c2ccc(O)c(F)c2)cc2[nH]ncc2c1-c1ccco1` [Compound 76] returned an IC50 of 0.1 to 1 µM.
Same read-out and setting: then `N#Cc1c(-c2ccc(O)cc2F)nc2[nH]ncc2c1-c1ccc(CO)o1` [Compound 77], with 0.1 to 1 µM; and `Cc1n[nH]c2nc(-c3ccc(O)cc3)c(C#N)c(-c3ccco3)c12` [Compound 78], with 0.1 to 1 µM.
Still for that read-out and setting: then `Cc1n[nH]c2cc(-c3ccc(O)cc3F)c(C#N)c(-c3ccc(CN)o3)c12` [Compound 80], with 0.1 to 1 µM; and `Cc1n[nH]c2nc(Cc3ccc(F)cc3F)c(C#N)c(-c3ccc(N4CCNCC4)cc3F)c12` [Compound 302], with above 10 µM; and `N#Cc1c(-c2ccc(O)cc2)nc2[nH]nc(N)c2c1-c1ccc(N2CCNCC2)cc1` [Compound 303], with 1 to 10 µM.
`N#Cc1c(-c2ccc(OC(=O)c3ccccc3)cc2F)nc2[nH]nc(N)c2c1-c1ccc(N2CCNCC2)cc1` [Compound 304]: the IC50 was 1 to 10 µM.
Take `COC(=O)c1c(-c2ccc(O)cc2)nc2[nH]nc(N)c2c1-c1ccc(N2CCNCC2)cc1` [Compound 305]: the IC50 was below 0.1 µM.
Still for that read-out and setting: then `COC(=O)c1c(-c2ccc(OC(=O)C3CC3)cc2F)nc2[nH]nc(C)c2c1-c1ccc(N2CCNCC2)cc1` [Compound 306], with below 0.1 µM; and `COC(=O)c1c(-c2ccc(O)cc2)nc2[nH]nc(N)c2c1-c1ccc(N2CCN(C)CC2)cc1` [Compound 307], with below 0.1 µM.
